Source: patent US9499550B2 (BRISTOL-MYERS SQUIBB COMPANY, priority 2012, dated 2016)
Where two headings read alike, the source gives them in different places.

Experiments:
[1] = tested on: HCV genotype 1a (H77 strain) replicon in HUH-7 cells; experiment: HCV replicon luciferase reporter assay, genotype 1a; assay type: cell-based; conditions: Hepatitis C virus, Huh-7, 72 h, HCV genotype 1a replicon luciferase assay, 3 days incubation
Text: (§1) Generation of HCV Replicon
(§2) An HCV replicon whole cell system was established as described by Lohmann V, Korner F, Koch J, Herian U, Theilmann L, Bartenschlager R., Science 285(5424):110-3 (1999) and modified to introduce a luciferase reporter, as first described by Krieger et al (Krieger N, Lohmann V, and Bartenschlager R, J. Virol. 75(10):4614-4624 (2001)). CDNA encoding a humanized form of the Renilla luciferase gene and a linker sequence fused directly to the 3′-end of the luciferase gene were introduced into the replicon construct using an Asc1 restriction site located in core, directly upstream of the neomycin marker gene. The adaptive mutation at position 1179 (serine to isoleucine) was also introduced (Blight K J, Kolykhalov, A A, Rice, C M, Science 290(5498):1972-1974). A stable cell line constitutively expressing this HCV replicon construct was generated by first linearizing plasmid DNAs with ScaI. RNA transcripts were synthesized in vitro using the T7 MegaScript transcription kit (Ambion, Austin, Tex.) according to manufacturer's directions. In vitro transcripts of the cDNA were transfected into the human hepatoma cell line, HUH-7. […] Resulting cell lines were characterized for positive and negative strand RNA production and protein production over time.
A stable HCV replicon luciferase reporter cell line representing the genotype 1a H77 strain (Yanagi M, Purcell R H, Emerson S U, et al. Transcripts from a single full-length cDNA clone of hepatitis C virus are infectious when directly transfected into the liver of a chimpanzee. Proc Natl Acad Sci USA 1997; 94(16):8738-8743) was generated as described previously for the genotype 1b(Con1) replicon luciferase cell line. The replicon construct was modified by introducing mutations were introduced into the genes encoding the NS3 helicase domain (proline replaced by leucine at position 1496) and NSSA (serine to isoleucine at position 2204) to improve replication in cell culture.
(§3) HCV Replicon Luciferase Reporter Assay
(§4) HCV replicon luciferase assays were developed to monitor the inhibitory effects of compounds described in the disclosure on HCV genotypes 1a and 1b viral replication. HUH-7 cells, constitutively expressing the HCV replicon, were grown in Dulbecco's Modified Eagle Media (DMEM) (Gibco-BRL) containing 10% Fetal calf serum (FCS) (Sigma) and 1 mg/mL G418 (Gibco-BRL). Compounds were serially diluted 3 folds in DMSO for a twenty-point titration and subsequently transferred to sterile 384-well tissue-culture treated plates (Corning cat #3571). The plates were then seeded with 50 μL of cells at a density of 3.0×10^3 cells/well in DMEM containing 4% FCS (final DMSO concentration at 0.5%). After 3 days incubation at 37° C., cells were analyzed for Renilla Luciferase activity using the EnduRen as substrate (Promega cat #E6485). The EnduRen substrate was diluted in DMEM and then added to the plates to a final concentration of 7.5 μM. The plates were incubated for 2 hrs at 37° C. and then read immediately for 30 seconds with Viewlux Imager (PerkinElmer) using a luminescence program. To assess cytotoxicity of compounds, CC50 values were generated by multiplexing the EnduRen-containing plates with Cell Titer-Blue (Promega, cat # G8082). Cell-Titer Blue (3 μL) was added to each well and incubated for 8 hrs at 37° C. The fluorescence signal from each well was read, with an excitation wavelength at 525/10 nm and an emission wavelength of 598/10 nm, using the Viewlux Imager.
(§5) The EC50 values for compounds were calculated by using a four-parameter logistic equation: y=A+((B−A)/(1+((C/x)^D))), where A and B denotes minimal and maximal % inhibition, respectively, C is the EC50, D is the hill slope and x represents compound concentration.

[2] = tested on: HCV genotype 1b (Con1) replicon in HUH-7 cells; experiment: HCV replicon luciferase reporter assay, genotype 1b; assay type: cell-based; conditions: Hepatitis C virus, Huh-7, 72 h, HCV genotype 1b replicon luciferase assay, 3 days incubation
Text: as §1
as §2, with “time. […]” for “time.”
as §3, §4, §5

[3] = range class, read-out: LE_1a (EC50, range)
[4] = range class, read-out: LE_1b (EC50, range)
[5] = GETYPE1A, range class, read-out: LE_1a (EC50, range)
[6] = GETYPE1B, range class, read-out: LE_1b (EC50, range)

SMILES | EC50 [1, 3] | EC50 [2, 4] | EC50 [1, 5] | EC50 [2, 6] | EC50 ([1]; read-out: LE_1a (EC50)) | EC50 ([2]; read-out: LE_1b (EC50))
COc1cnc(O[C@@H]2C[C@H]3C(=O)N[C@]4(C(=O)NS(=O)(=O)C5CC5)C[C@H]4/C=C\CC[C@H](C)C[C@@H](C)[C@H](NC(=O)OC(C)(C)C(F)(F)F)C(=O)N3C2)c2cccc(Cl)c12 [Compound 28, 1,1,1-trifluoro-2-methylpropan-2-yl((2R,6S,7R,9S,13aS,14aR,16aS,Z)-2-((5-chloro-4-methoxyisoquinolin-1-yl)oxy)-14a-((cyclopropylsulfonyl)carbamoyl)-7,9-dimethyl-5,16-dioxo-1,2,3,5,6,7,8,9,10,11,13a,14,14a,15,16,16a-hexadecahydrocyclopropa[e]pyrrolo[1,2-a][1,4]diazacyclopentadecin-6-yl)carbamate] | < 5.46 nM | < 5.46 nM | – | – | – | –
COc1cnc(O[C@@H]2C[C@H]3C(=O)N[C@]4(C(=O)NS(=O)(=O)C5(F)CC5)C[C@H]4/C=C\CC[C@@H](C)C[C@@H](C)[C@H](NC(=O)OC(C)(C)C(F)(F)F)C(=O)N3C2)c2cccc(Cl)c12 [Compound 30] | – | – | < 5.46 nM | < 5.46 nM | – | –
C[C@@H]1CC/C=C\[C@@H]2C[C@@]2(C(=O)NS(=O)(=O)C2CC2)NC(=O)[C@@H]2C[C@@H](Oc3ncc(OC4CC4)c4c(Cl)cccc34)CN2C(=O)[C@@H](NC(=O)OC(C)(C)C(F)(F)F)[C@H](C)C1 [Compound 32] | – | – | < 5.46 nM | < 5.46 nM | – | –
CC(C)n1nc(O[C@@H]2C[C@H]3C(=O)N[C@]4(C(=O)NS(=O)(=O)C5CC5)C[C@H]4/C=C\CC[C@H](C)C[C@@H](C)[C@H](NC(=O)OC(C)(C)C)C(=O)N3C2)c2ccccc2c1=O [Compound 1001, tert-butyl ((2R,6S,7R,9S,13aS,14aR,16aS,Z)-14a-((cyclopropylsulfonyl)carbamoyl)-2-((3-isopropyl-4-oxo-3,4-dihydrophthalazin-1-yl)oxy)-7,9-dimethyl-5,16-dioxo-1,2,3,5,6,7,8,9,10,11,13a,14,14a,15,16,16a-hexadecahydrocyclopropa[e]pyrrolo[1,2-a][1,4]diazacyclopentadecin-6-yl)carbamate] | > 87.4 nM | > 87.4 nM | – | – | ≥ 1000 nM | 449 nM
CC(C)n1nc(O[C@@H]2C[C@H]3C(=O)N[C@]4(C(=O)NS(=O)(=O)C5CC5)C[C@H]4/C=C\CC[C@@H](C)C[C@@H](C)[C@H](NC(=O)OC(C)(C)C)C(=O)N3C2)c2ccccc2c1=O [Compound 1002, tert-butyl ((2R,6S,7R,9R,13aS,14aR,16aS,Z)-14a-((cyclopropylsulfonyl)carbamoyl)-2-((3-isopropyl-4-oxo-3,4-dihydrophthalazin-1-yl)oxy)-7,9-dimethyl-5,16-dioxo-1,2,3,5,6,7,8,9,10,11,13a,14,14a,15,16,16a-hexadecahydrocyclopropa[e]pyrrolo[1,2-a][1,4]diazacyclopentadecin-6-yl)carbamate] | > 87.4 nM | 4.82 to 103 nM | – | – | – | –
CC(C)n1nc(O[C@@H]2C[C@H]3C(=O)N[C@]4(C(=O)NS(=O)(=O)C5(C)CC5)C[C@H]4/C=C\CC[C@H](C)C[C@@H](C)[C@H](NC(=O)OC(C)(C)C)C(=O)N3C2)c2ccccc2c1=O [Compound 1003, tert-butyl ((2R,6S,7R,9S,13aS,14aR,16aS,Z)-2-((3-isopropyl-4-oxo-3,4-dihydrophthalazin-1-yl)oxy)-7,9-dimethyl-14a-(((1-methylcyclopropyl)sulfonyl)carbamoyl)-5,16-dioxo-1,2,3,5,6,7,8,9,10,11,13a,14,14a,15,16,16a-hexadecahydrocyclopropa[e]pyrrolo[1,2-a][1,4]diazacyclopentadecin-6-yl)carbamate] | > 87.4 nM | > 87.4 nM | – | – | – | –
CC(C)n1nc(O[C@@H]2C[C@H]3C(=O)N[C@]4(C(=O)NS(=O)(=O)C5(C)CC5)C[C@H]4/C=C\CC[C@@H](C)C[C@@H](C)[C@H](NC(=O)OC(C)(C)C)C(=O)N3C2)c2ccccc2c1=O [Compound 1004, tert-butyl ((2R,6S,7R,9R,13aS,14aR,16aS,Z)-2-((3-isopropyl-4-oxo-3,4-dihydrophthalazin-1-yl)oxy)-7,9-dimethyl-14a-(((1-methylcyclopropyl)sulfonyl)carbamoyl)-5,16-dioxo-1,2,3,5,6,7,8,9,10,11,13a,14,14a,15,16,16a-hexadecahydrocyclopropa[e]pyrrolo[1,2-a][1,4]diazacyclopentadecin-6-yl)carbamate] | > 87.4 nM | 4.82 to 103 nM | – | – | 110 nM | 48.8 nM
COCCn1nc(O[C@@H]2C[C@H]3C(=O)N[C@]4(C(=O)NS(=O)(=O)C5(C)CC5)C[C@H]4/C=C\CC[C@H](C)C[C@@H](C)[C@H](NC(=O)OC(C)(C)C)C(=O)N3C2)c2ccccc2c1=O [Compound 1005, tert-butyl ((2R,6S,7R,9S,13aS,14aR,16aS,Z)-2-((3-(2-methoxyethyl)-4-oxo-3,4-dihydrophthalazin-1-yl)oxy)-7,9-dimethyl-14a-(((1-methylcyclopropyl)sulfonyl)carbamoyl)-5,16-dioxo-1,2,3,5,6,7,8,9,10,11,13a,14,14a,15,16,16a-hexadecahydrocyclopropa[e]pyrrolo[1,2-a][1,4]diazacyclopentadecin-6-yl)carbamate] | > 87.4 nM | > 87.4 nM | – | – | – | –
COCCn1nc(O[C@@H]2C[C@H]3C(=O)N[C@]4(C(=O)NS(=O)(=O)C5(C)CC5)C[C@H]4/C=C\CC[C@@H](C)C[C@@H](C)[C@H](NC(=O)OC(C)(C)C)C(=O)N3C2)c2ccccc2c1=O [Compound 1006, tert-butyl ((2R,6S,7R,9R,13aS,14aR,16aS,Z)-2-((3-(2-methoxyethyl)-4-oxo-3,4-dihydrophthalazin-1-yl)oxy)-7,9-dimethyl-14a-(((1-methylcyclopropyl)sulfonyl)carbamoyl)-5,16-dioxo-1,2,3,5,6,7,8,9,10,11,13a,14,14a,15,16,16a-hexadecahydrocyclopropa[e]pyrrolo[1,2-a][1,4]diazacyclopentadecin-6-yl)carbamate] | 4.82 to 103 nM | 4.82 to 103 nM | – | – | – | –
